Measured values: ChEMBL document CHEMBL1201862, “PubChem BioAssay data set” (2004)
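Compound exposure: 48 hours, 5 concentrations, 96-well plates. Abbreviation: GI50, concentration required for 50% inhibition of growth.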 Activity calls are given as the source filed them. No stated cut-off is given here; in the data, active = GI50 up to about 1.1 µM and inactive = higher.

Columns and labels:
Assay in all cases: DTP human tumour cell line panel, 48 h
786-0 = test system: 786-0
A549 = test system: A549
ACHN = test system: ACHN
BT-549 = test system: BT-549
CAKI-1 = test system: CAKI-1
CCRF-CEM = test system: CCRF-CEM
COLO 205 = test system: COLO 205
DU-145 = test system: DU-145
EKVX = test system: EKVX
HCC 2998 = test system: HCC 2998
HCT-116 = test system: HCT-116
HCT-15 = test system: HCT-15
HL-60 = test system: HL-60
HOP-62 = test system: HOP-62
HT-29 = test system: HT-29
Hs-578T = test system: Hs-578T
IGROV-1 = test system: IGROV-1
K562 = test system: K562
KM12 = test system: KM12
LOX IMVI = test system: LOX IMVI
M14 = test system: M14
MCF7 = test system: MCF7
MDA-MB-231 = test system: MDA-MB-231
MDA-MB-435 = test system: MDA-MB-435
MDA-N = test system: MDA-N
MOLT-4 = test system: MOLT-4
Malme-3M = test system: Malme-3M
NCI-H226 = test system: NCI-H226
NCI-H23 = test system: NCI-H23
NCI-H460 = test system: NCI-H460
NCI/ADR-RES = test system: NCI/ADR-RES
OVCAR-3 = test system: OVCAR-3
OVCAR-4 = test system: OVCAR-4
OVCAR-5 = test system: OVCAR-5
OVCAR-8 = test system: OVCAR-8
PC-3 = test system: PC-3
RPMI-8226 = test system: RPMI-8226
RXF 393 = test system: RXF 393
SF-268 = test system: SF-268
SF-295 = test system: SF-295
SK-MEL-28 = test system: SK-MEL-28
SK-MEL-2 = test system: SK-MEL-2
SK-MEL-5 = test system: SK-MEL-5
SK-OV-3 = test system: SK-OV-3
SN12C = test system: SN12C
SNB-19 = test system: SNB-19
SNB-75 = test system: SNB-75
SR = test system: SR
SW-620 = test system: SW-620
T47D = test system: T47D
TK-10 = test system: TK-10
U-251 = test system: U-251
UACC-257 = test system: UACC-257
UACC-62 = test system: UACC-62
UO-31 = test system: UO-31
A498 = test system: A498
HOP-92 = test system: HOP-92
NCI-H522 = test system: NCI-H522
SF-539 = test system: SF-539

Which GI50 (786-0) does the source give for `CCCC(=O)n1[nH]c(=O)n(-c2ccc(Cl)cc2)c1=O` here?
The GI50 was > 100 µM (inactive).

What about the GI50 (A549) of the same molecule?
The GI50 was > 100 µM (inactive).

What about the GI50 (ACHN) of the same molecule?
The GI50 was > 100 µM (inactive).

What about the GI50 (BT-549) of the same molecule?
The GI50 was > 100 µM (inactive).

What about the GI50 (CAKI-1) of the same molecule?
Its GI50 is > 100 µM (inactive).

What about the GI50 (CCRF-CEM) of the same molecule?
The GI50 was > 100 µM (inactive).

And the GI50 (COLO 205)?
The GI50 was > 100 µM (inactive).

What about the GI50 (DU-145) of the same molecule?
The GI50 was > 100 µM (inactive).

What about the GI50 (EKVX) of the same molecule?
The GI50 was > 100 µM (inactive).

What about the GI50 (HCC 2998) of the same molecule?
Its GI50 is > 100 µM (inactive).

What about the GI50 (HCT-116) of the same molecule?
Its GI50 is > 100 µM (inactive).

What about the GI50 (HCT-15) of the same molecule?
The GI50 was greater than 100000 nM.

What about the GI50 (HL-60) of the same molecule?
The GI50 was > 100 µM (inactive).

What about the GI50 (HOP-62) of the same molecule?
Its GI50 is > 100 µM (inactive).

And the GI50 (HT-29)?
The GI50 was > 100 µM (inactive).

And the GI50 (Hs-578T)?
Its GI50 is > 100 µM (inactive).

What about the GI50 (IGROV-1) of the same molecule?
Its GI50 is > 100 µM (inactive).

What about the GI50 (K562) of the same molecule?
The GI50 was > 100 µM (inactive).

What about the GI50 (KM12) of the same molecule?
Its GI50 is > 100 µM (inactive).

What about the GI50 (LOX IMVI) of the same molecule?
Its GI50 is > 100 µM (inactive).

What about the GI50 (M14) of the same molecule?
Its GI50 is > 100 µM (inactive).

And the GI50 (MCF7)?
The GI50 was > 100 µM (inactive).

What about the GI50 (MDA-MB-231) of the same molecule?
The GI50 was > 100 µM (inactive).

And the GI50 (MDA-MB-435)?
The GI50 was > 100 µM (inactive).

What about the GI50 (MDA-N) of the same molecule?
The GI50 was > 100 µM (inactive).

What about the GI50 (MOLT-4) of the same molecule?
The GI50 was > 100 µM (inactive).

What about the GI50 (Malme-3M) of the same molecule?
The GI50 was 43.4 µM (inactive).

What about the GI50 (NCI-H226) of the same molecule?
Its GI50 is > 100 µM (inactive).

And the GI50 (NCI-H23)?
Its GI50 is > 100 µM (inactive).

And the GI50 (NCI-H460)?
The GI50 was > 100 µM (inactive).

And the GI50 (NCI/ADR-RES)?
The GI50 was > 100 µM (inactive).

And the GI50 (OVCAR-3)?
The GI50 was > 100 µM (inactive).

And the GI50 (OVCAR-4)?
The GI50 was > 100 µM (inactive).

And the GI50 (OVCAR-5)?
Its GI50 is > 100 µM (inactive).

And the GI50 (OVCAR-8)?
The GI50 was > 100 µM (inactive).

What about the GI50 (PC-3) of the same molecule?
Its GI50 is > 100 µM (inactive).

And the GI50 (RPMI-8226)?
The GI50 was > 100 µM (inactive).

And the GI50 (RXF 393)?
Its GI50 is > 100 µM (inactive).

And the GI50 (SF-268)?
The GI50 was > 100 µM (inactive).

And the GI50 (SF-295)?
Its GI50 is > 100 µM (inactive).

What about the GI50 (SK-MEL-28) of the same molecule?
Its GI50 is > 100 µM (inactive).

What about the GI50 (SK-MEL-2) of the same molecule?
Its GI50 is > 100 µM (inactive).

And the GI50 (SK-MEL-5)?
Its GI50 is > 100 µM (inactive).

What about the GI50 (SK-OV-3) of the same molecule?
The GI50 was > 100 µM (inactive).

And the GI50 (SN12C)?
The GI50 was > 100 µM (inactive).

What about the GI50 (SNB-19) of the same molecule?
Its GI50 is > 100 µM (inactive).

And the GI50 (SNB-75)?
Its GI50 is > 100 µM (inactive).

What about the GI50 (SR) of the same molecule?
Its GI50 is > 100 µM (inactive).

And the GI50 (SW-620)?
Its GI50 is > 100 µM (inactive).

What about the GI50 (T47D) of the same molecule?
The GI50 was > 100 µM (inactive).

And the GI50 (TK-10)?
The GI50 was > 100 µM (inactive).

What about the GI50 (U-251) of the same molecule?
The GI50 was > 100 µM (inactive).

And the GI50 (UACC-257)?
The GI50 was > 100 µM (inactive).

What about the GI50 (UACC-62) of the same molecule?
Its GI50 is > 100 µM (inactive).

What about the GI50 (UO-31) of the same molecule?
The GI50 was > 100 µM (inactive).

For `CC(=O)NC1C(OCc2ccccc2)OC(CO)C(O)C1OCC(=O)N1CCCC1C(=O)N[C@@H](CCC(=O)NCCNCCNc1c2ccccc2nc2cccc([N+](=O)[O-])c12)C(N)=O` (stereo partly drawn), which GI50 (786-0) is on record?
The GI50 was 2.14 µM (inactive).

And the GI50 (A498)?
The GI50 was 1.04 µM (active).

What about the GI50 (A549) of the same molecule?
Its GI50 is 1.52 µM (inactive).

What about the GI50 (ACHN) of the same molecule?
Its GI50 is 2.11 µM (inactive).

And the GI50 (BT-549)?
The GI50 was 4.82 µM (inactive).

What about the GI50 (CAKI-1) of the same molecule?
The GI50 was 1.94 µM (inactive).

And the GI50 (CCRF-CEM)?
Its GI50 is 1.69 µM (inactive).

What about the GI50 (COLO 205) of the same molecule?
Its GI50 is 1.88 µM (inactive).

What about the GI50 (DU-145) of the same molecule?
The GI50 was 0.968 µM (active).

And the GI50 (EKVX)?
Its GI50 is 7.57 µM (inactive).

What about the GI50 (HCC 2998) of the same molecule?
The GI50 was 2.67 µM (inactive).

And the GI50 (HCT-116)?
Its GI50 is 0.979 µM (active).

And the GI50 (HCT-15)?
Its GI50 is 2110 nM.

What about the GI50 (HL-60) of the same molecule?
Its GI50 is 3.78 µM (inactive).

And the GI50 (HOP-62)?
Its GI50 is 2.54 µM (inactive).

And the GI50 (HOP-92)?
Its GI50 is 1.37 µM (inactive).

What about the GI50 (HT-29) of the same molecule?
Its GI50 is 1.46 µM (inactive).

And the GI50 (Hs-578T)?
The GI50 was 3.89 µM (inactive).

And the GI50 (IGROV-1)?
The GI50 was 2.56 µM (inactive).

And the GI50 (K562)?
Its GI50 is 0.655 µM (active).

And the GI50 (KM12)?
The GI50 was 3.46 µM (inactive).

What about the GI50 (LOX IMVI) of the same molecule?
The GI50 was 4.55 µM (inactive).

And the GI50 (M14)?
The GI50 was 2.92 µM (inactive).

What about the GI50 (MCF7) of the same molecule?
Its GI50 is 0.724 µM (active).

And the GI50 (MDA-MB-231)?
The GI50 was 2.5 µM (inactive).

And the GI50 (MDA-MB-435)?
Its GI50 is 2.65 µM (inactive).

What about the GI50 (MDA-N) of the same molecule?
Its GI50 is 2.88 µM (inactive).

What about the GI50 (MOLT-4) of the same molecule?
The GI50 was 1.33 µM (inactive).

And the GI50 (Malme-3M)?
The GI50 was 2.57 µM (inactive).

And the GI50 (NCI-H226)?
The GI50 was 5.6 µM (inactive).

What about the GI50 (NCI-H23) of the same molecule?
The GI50 was 2.51 µM (inactive).

And the GI50 (NCI-H460)?
Its GI50 is 0.849 µM (active).

What about the GI50 (NCI-H522) of the same molecule?
Its GI50 is 1.45 µM (inactive).

What about the GI50 (NCI/ADR-RES) of the same molecule?
Its GI50 is 7.45 µM (inactive).

And the GI50 (OVCAR-3)?
The GI50 was 5.65 µM (inactive).

And the GI50 (OVCAR-4)?
Its GI50 is 3.91 µM (inactive).

What about the GI50 (OVCAR-5) of the same molecule?
The GI50 was 6.81 µM (inactive).

And the GI50 (OVCAR-8)?
The GI50 was 2.19 µM (inactive).

And the GI50 (PC-3)?
Its GI50 is 2.94 µM (inactive).

What about the GI50 (RPMI-8226) of the same molecule?
The GI50 was 0.37 µM (active).

What about the GI50 (RXF 393) of the same molecule?
Its GI50 is 2.17 µM (inactive).

What about the GI50 (SF-268) of the same molecule?
Its GI50 is 2.41 µM (inactive).

And the GI50 (SF-295)?
Its GI50 is 5.33 µM (inactive).

And the GI50 (SF-539)?
Its GI50 is 3.27 µM (inactive).

What about the GI50 (SK-MEL-28) of the same molecule?
Its GI50 is 6.68 µM (inactive).

And the GI50 (SK-MEL-2)?
The GI50 was 3.67 µM (inactive).

What about the GI50 (SK-MEL-5) of the same molecule?
The GI50 was 1.48 µM (inactive).

What about the GI50 (SK-OV-3) of the same molecule?
The GI50 was 10.4 µM (inactive).

And the GI50 (SN12C)?
Its GI50 is 1.39 µM (inactive).

What about the GI50 (SNB-19) of the same molecule?
The GI50 was 5.5 µM (inactive).

And the GI50 (SNB-75)?
The GI50 was 6.64 µM (inactive).

What about the GI50 (SW-620) of the same molecule?
The GI50 was 1.31 µM (inactive).

What about the GI50 (T47D) of the same molecule?
The GI50 was 5.78 µM (inactive).

What about the GI50 (TK-10) of the same molecule?
The GI50 was 4.27 µM (inactive).

And the GI50 (U-251)?
Its GI50 is 2.44 µM (inactive).

What about the GI50 (UACC-257) of the same molecule?
Its GI50 is 6.28 µM (inactive).

And the GI50 (UACC-62)?
Its GI50 is 5.24 µM (inactive).

What about the GI50 (UO-31) of the same molecule?
The GI50 was 3.75 µM (inactive).
